These molecules were tested on hamsters (assay: Post-coital antifertility activity in pregnant hamsters, subcutaneous (days 4-8, autopsy day 14)). Conditions: 10 mg/kg s.c. daily for 5 days, days 4-8 of pregnancy, sesame oil.
Format: in vivo, Syrian golden hamsters
Protocol: Representative experiments for assessing antifertility activity were carried out with femal Syrian golden hamsters weighing 100 to 130 g. The animals were mated and the presence of sperm in the vagina was taken as evidence of mating. […] Pregnancy was later confirmed at the time of autopsy by presence of fetuses or implantation sites in the uterus. Even if an animal aborts the fetus, implantation scars still remain as evidence that the animal has been pregnant.
The animals were autopsied on day 14 of pregnancy and the uteri were examined for evidence of pregnancy (implantation sites, fetal resorptions or live fetuses), hemorrage, and evidence of abnormalities of the uterus, placenta or fetuses.

Compound | antifertility activity (active: reduction of live fetuses in at least 60% of the treated animals)
c1ccc(-c2n[nH]c(-c3ccccc3)n2)cc1 [3,5-diphenyl-1H-1,2,4-triazole, reference compound] | much less active
COc1cccc(-c2n[nH]c(-c3ccccc3C)n2)c1 [Example 1, 3-(m-Methoxyphenyl)-5-(o-tolyl)-1H-1,2,4-triazole] | active
COc1ccccc1-c1n[nH]c(-c2ccccc2C)n1 [Example 4, 3-(o-Methoxyphenyl)-5-(o-tolyl)-1H-1,2,4-triazole] | active
CCc1ccccc1-c1nc(-c2cccc(F)c2)n[nH]1 [Example 18, 5-(o-Ethylphenyl)-3-(m-fluorophenyl)-1H-1,2,4-triazole] | active
CCc1ccccc1-c1nc(-c2ccc3c(c2)OCO3)n[nH]1 [Example 22, 5-(o-Ethylphenyl)-3-(3,4-methylenedioxyphenyl)-1H-1,2,4-triazole] | active
Cc1ccc(-c2nc(-c3ccccc3)n[nH]2)c(C)c1 [Example 25, 5-(2,4-Dimethylphenyl)-3-phenyl-1H-1,2,4-triazole] | active
COc1cccc(-c2n[nH]c(-c3ccc(C)cc3C)n2)c1 [Example 26, 5-(2,4-Dimethylphenyl)-3-(m-methoxyphenyl)-1H-1,2,4-triazole] | active
Cc1cc(Cl)ccc1-c1nc(-c2ccccc2)n[nH]1 [Example 29, 5-(4-Chloro-2-methylphenyl)-3-phenyl-1H-1,2,4-triazole] | active
COc1cccc(-c2n[nH]c(-c3ccc(Cl)cc3C)n2)c1 [Example 30, 5-(4-Chloro-2-methylphenyl)-3-(m-methoxyphenyl)-1H-1,2,4-triazole] | active
COc1cccc(-c2n[nH]c(-c3cc(Cl)ccc3C)n2)c1 [Example 32, 5-(5-Chloro-2-methylphenyl)-3-(m-methoxyphenyl)-1H-1,2,4-triazole] | active

Each molecule was assayed on rats (assay: Anti-reproductive activity in pregnant rats, subcutaneous (5 days from day 6, autopsy day 16)). Conditions: Rattus norvegicus, sc, 384 h, 20 mg/kg s.c., five consecutive days from day 6 of pregnancy, sesame oil, read-out: reduction of live fetuses, % of the treated rats.
Format: in vivo, Sprague-Dawley rats
Protocol: The same criteria and experimental conditions as above were also applied when the anti-reproductive activity of the compounds of the invention was investigated in other animal species such as, for instance, rats, dogs, monkeys and baboons. In representative experiments, female Sprague-Dawley rats weighing from 200 to 300 g. were treated subcutaneously with a dosage of 20 mg/kg of the compound to be tested, dissolved in sesame oil, for five consecutive days starting from day 6 of pregnancy.

Compound | responders at 20 mg/kg [%]
CCOc1cccc(-c2n[nH]c(-c3ccccc3C)n2)c1 [Example 9, 3-(m-Ethoxyphenyl)-5-(o-tolyl)-1H-1,2,4-triazole] | ≥ 60
C=CCOc1cccc(-c2n[nH]c(-c3ccccc3C)n2)c1 [Example 10, 3-(m-Allyloxyphenyl)-5-(o-tolyl)-1H-1,2,4-triazole] | ≥ 60
Cc1ccccc1-c1nc(-c2ccc(-c3ccccc3)cc2)n[nH]1 [Example 11, 3-(1,1'-Biphenyl-4-yl)-5-(o-tolyl)-1H-1,2,4-triazole] | ≥ 60
C=CCOc1cccc(-c2n[nH]c(-c3ccccc3CC)n2)c1 [Example 13, 3-(m-Allyloxyphenyl)-5-(o-ethylphenyl)-1H-1,2,4-triazole] | ≥ 60
CCc1ccccc1-c1nc(-c2ccc(Cl)cc2)n[nH]1 [Example 14, 3-(p-Chlorophenyl)-5-(o-ethylphenyl)-1H-1,2,4-triazole] | ≥ 60
CC(C)c1ccccc1-c1nc(-c2ccccc2)n[nH]1 [Example 15, 5-(o-Isopropylphenyl)-3-phenyl-1H-1,2,4-triazole] | ≥ 60
COc1cccc(-c2n[nH]c(-c3ccccc3C(C)C)n2)c1 [Example 16, 5-(o-Isopropylphenyl)-3-(m-methoxyphenyl)-1H-1,2,4-triazole] | ≥ 60

Reference: patent US4379155A, “3,5-Disubstituted-1H-1,2,4-triazole derivatives” (priority 1981, dated 1983)
